Data reported in PubChem BioAssay (NCI).
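1) Cells in 96-well plates. 2) Compound, 48 h, 5 concentrations. 3) Linear interpolation between surrounding doses. 4) Unreached endpoint = highest concentration. GI50: concentration for 50% inhibition of growth. At the TGI there is no net growth.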

Assays:
Experiment in all cases: NCI anticancer screen, dose series, 48 h
786-0 renal = system: 786-0 renal
A498 renal = system: A498 renal
A549 NSCLC = system: A549 NSCLC
ACHN renal = system: ACHN renal
BT-549 breast = system: BT-549 breast
CAKI-1 renal = system: CAKI-1 renal
CCRF-CEM leukemia = system: CCRF-CEM leukemia
COLO 205 colon = system: COLO 205 colon
DU-145 prostate = system: DU-145 prostate
EKVX NSCLC = system: EKVX NSCLC
HCC-2998 colon = system: HCC-2998 colon
HCT-116 colon = system: HCT-116 colon
HCT-15 colon = system: HCT-15 colon
HL-60(TB) leukemia = system: HL-60(TB) leukemia
HOP-62 NSCLC = system: HOP-62 NSCLC
HOP-92 NSCLC = system: HOP-92 NSCLC
HS 578T breast = system: HS 578T breast
HT29 colon = system: HT29 colon
IGROV1 ovarian = system: IGROV1 ovarian
K-562 leukemia = system: K-562 leukemia
KM12 colon = system: KM12 colon
LOX IMVI melanoma = system: LOX IMVI melanoma
M14 melanoma = system: M14 melanoma
MALME-3M melanoma = system: MALME-3M melanoma
MCF7 breast = system: MCF7 breast
MDA-MB-231 breast = system: MDA-MB-231 breast
MDA-MB-435 = system: MDA-MB-435
MOLT-4 leukemia = system: MOLT-4 leukemia
NCI-H226 lung = system: NCI-H226 lung
NCI-H23 lung = system: NCI-H23 lung
NCI-H460 lung = system: NCI-H460 lung
NCI-H522 lung = system: NCI-H522 lung
NCI/ADR-RES ovarian = system: NCI/ADR-RES ovarian
OVCAR-3 ovarian = system: OVCAR-3 ovarian
OVCAR-4 ovarian = system: OVCAR-4 ovarian
OVCAR-5 ovarian = system: OVCAR-5 ovarian
OVCAR-8 ovarian = system: OVCAR-8 ovarian
PC-3 prostate = system: PC-3 prostate
RPMI-8226 leukemia = system: RPMI-8226 leukemia
RXF 393 renal = system: RXF 393 renal
SF-268 CNS = system: SF-268 CNS
SF-295 CNS = system: SF-295 CNS
SF-539 CNS = system: SF-539 CNS
SK-MEL-2 melanoma = system: SK-MEL-2 melanoma
SK-MEL-28 melanoma = system: SK-MEL-28 melanoma
SK-MEL-5 melanoma = system: SK-MEL-5 melanoma
SK-OV-3 ovarian = system: SK-OV-3 ovarian
SN12C renal = system: SN12C renal
SNB-19 CNS = system: SNB-19 CNS
SNB-75 CNS = system: SNB-75 CNS
SR leukemia = system: SR leukemia
SW-620 colon = system: SW-620 colon
T-47D breast = system: T-47D breast
TK-10 renal = system: TK-10 renal
U251 CNS = system: U251 CNS
UACC-257 melanoma = system: UACC-257 melanoma
UACC-62 melanoma = system: UACC-62 melanoma
UO-31 renal = system: UO-31 renal

For `N#Cc1c(-c2ccccc2)nc(SCC2CO2)nc1N1CCOCC1` (stereo unspecified), the GI50 (786-0 renal) was 4.12 µM, the TGI (786-0 renal) was > 46.1 µM and the GI50 (A498 renal) was 1.26 µM. For the same compound, the TGI (A498 renal) was 5.42 µM, the GI50 (A549 NSCLC) was 21 µM and the TGI (A549 NSCLC) was > 100 µM. For the same compound, the GI50 (ACHN renal) was 4.27 µM, the TGI (ACHN renal) was > 100 µM and the GI50 (BT-549 breast) was 5.89 µM. For the same compound, the TGI (BT-549 breast) was > 94.1 µM, the GI50 (CAKI-1 renal) was 1.07 µM and the TGI (CAKI-1 renal) was 17 µM. For the same compound, the GI50 (CCRF-CEM leukemia) was > 31 µM, the TGI (CCRF-CEM leukemia) was > 100 µM and the GI50 (COLO 205 colon) was 11.3 µM. The TGI (COLO 205 colon) was 67.6 µM, the GI50 (DU-145 prostate) was 14.2 µM and the TGI (DU-145 prostate) was > 100 µM. For the same compound, the GI50 (EKVX NSCLC) was 4.73 µM, the TGI (EKVX NSCLC) was > 78.5 µM and the GI50 (HCC-2998 colon) was 0.253 µM. For the same compound, the TGI (HCC-2998 colon) was 18.2 µM, the GI50 (HCT-116 colon) was 20.5 µM and the TGI (HCT-116 colon) was > 100 µM. The GI50 (HCT-15 colon) was 4.71 µM, the TGI (HCT-15 colon) was > 100 µM and the GI50 (HL-60(TB) leukemia) was 8.88 µM. For the same compound, the TGI (HL-60(TB) leukemia) was > 100 µM, the GI50 (HOP-62 NSCLC) was 6.8 µM and the TGI (HOP-62 NSCLC) was > 86.8 µM. For the same compound, the GI50 (HOP-92 NSCLC) was 0.284 µM, the TGI (HOP-92 NSCLC) was 1.22 µM and the GI50 (HS 578T breast) was 1.93 µM. For the same compound, the TGI (HS 578T breast) was 11.8 µM, the GI50 (HT29 colon) was 29.7 µM and the TGI (HT29 colon) was > 100 µM. The GI50 (IGROV1 ovarian) was 2.6 µM, the TGI (IGROV1 ovarian) was 25.9 µM and the GI50 (K-562 leukemia) was > 47.2 µM. For the same compound, the TGI (K-562 leukemia) was > 100 µM, the GI50 (KM12 colon) was 25.8 µM and the TGI (KM12 colon) was > 100 µM. The GI50 (LOX IMVI melanoma) was 9.49 µM, the TGI (LOX IMVI melanoma) was > 100 µM and the GI50 (M14 melanoma) was 13.4 µM. The TGI (M14 melanoma) was > 100 µM, the GI50 (MALME-3M melanoma) was 2.32 µM and the TGI (MALME-3M melanoma) was > 68.3 µM. For the same compound, the GI50 (MCF7 breast) was 3.06 µM, the TGI (MCF7 breast) was > 100 µM and the GI50 (MDA-MB-231 breast) was 15.8 µM. For the same compound, the TGI (MDA-MB-231 breast) was > 100 µM, the GI50 (MDA-MB-435) was 9.56 µM and the TGI (MDA-MB-435) was > 100 µM. The GI50 (MOLT-4 leukemia) was 10.1 µM, the TGI (MOLT-4 leukemia) was > 74.6 µM and the GI50 (NCI-H226 lung) was 11.5 µM. For the same compound, the TGI (NCI-H226 lung) was > 100 µM, the GI50 (NCI-H23 lung) was 8.51 µM and the TGI (NCI-H23 lung) was > 100 µM. The GI50 (NCI-H460 lung) was 6.59 µM, the TGI (NCI-H460 lung) was > 100 µM and the GI50 (NCI-H522 lung) was 27.5 µM. For the same compound, the TGI (NCI-H522 lung) was > 100 µM, the GI50 (NCI/ADR-RES ovarian) was 11.3 µM and the TGI (NCI/ADR-RES ovarian) was > 95.5 µM. For the same compound, the GI50 (OVCAR-3 ovarian) was 5.27 µM, the TGI (OVCAR-3 ovarian) was > 69.2 µM and the GI50 (OVCAR-4 ovarian) was 52.7 µM. The TGI (OVCAR-4 ovarian) was > 100 µM, the GI50 (OVCAR-5 ovarian) was 5.05 µM and the TGI (OVCAR-5 ovarian) was > 83.3 µM. For the same compound, the GI50 (OVCAR-8 ovarian) was 35.9 µM, the TGI (OVCAR-8 ovarian) was > 100 µM and the GI50 (PC-3 prostate) was 6.19 µM. For the same compound, the TGI (PC-3 prostate) was > 100 µM, the GI50 (RPMI-8226 leukemia) was 9.41 µM and the TGI (RPMI-8226 leukemia) was 72.9 µM. For the same compound, the GI50 (RXF 393 renal) was 13 µM, the TGI (RXF 393 renal) was > 100 µM and the GI50 (SF-268 CNS) was 13.1 µM. For the same compound, the TGI (SF-268 CNS) was > 100 µM, the GI50 (SF-295 CNS) was 2.67 µM and the TGI (SF-295 CNS) was 28.2 µM. For the same compound, the GI50 (SF-539 CNS) was 10.6 µM, the TGI (SF-539 CNS) was > 95.4 µM and the GI50 (SK-MEL-2 melanoma) was 14.7 µM. The TGI (SK-MEL-2 melanoma) was 75.7 µM, the GI50 (SK-MEL-28 melanoma) was 5.11 µM and the TGI (SK-MEL-28 melanoma) was 76.5 µM. For the same compound, the GI50 (SK-MEL-5 melanoma) was 10.2 µM, the TGI (SK-MEL-5 melanoma) was > 100 µM and the GI50 (SK-OV-3 ovarian) was 8.25 µM. The TGI (SK-OV-3 ovarian) was 57.3 µM, the GI50 (SN12C renal) was 15.3 µM and the TGI (SN12C renal) was > 100 µM. For the same compound, the GI50 (SNB-19 CNS) was 64.4 µM, the TGI (SNB-19 CNS) was > 100 µM and the GI50 (SNB-75 CNS) was 1.91 µM. For the same compound, the TGI (SNB-75 CNS) was > 82.6 µM, the GI50 (SR leukemia) was 12.3 µM and the TGI (SR leukemia) was > 53.3 µM. The GI50 (SW-620 colon) was 28.8 µM, the TGI (SW-620 colon) was > 100 µM and the GI50 (T-47D breast) was 2.74 µM. It also gave a TGI (T-47D breast) of 16.4 µM, a GI50 (TK-10 renal) of 4.88 µM and a TGI (TK-10 renal) of 99 µM. The GI50 (U251 CNS) was 19.2 µM, the TGI (U251 CNS) was > 100 µM and the GI50 (UACC-257 melanoma) was 34.3 µM. The TGI (UACC-257 melanoma) was > 100 µM, the GI50 (UACC-62 melanoma) was 3.52 µM and the TGI (UACC-62 melanoma) was > 86.9 µM. The GI50 (UO-31 renal) was 5.61 µM and the TGI (UO-31 renal) was > 100 µM.
